Values after ≈ are worked out from the molar mass of the structure shown.
Experiments:
[1] = system: Spodoptera littoralis larvae; assay: Insecticidal activity, sprayed diet (Test 1 (a)), toxicity vs parathion; type: in vivo, Egyptian cotton leafworm (Spodoptera littoralis); conditions: second instar larvae; mortality 7 days after spraying; 50% mortality basis; standard parathion = 100
Method: (§1) The insecticidal and ovicidal activities of the compounds of the invention were assessed employing the pests, Egyptian cotton leafworm (Spodoptera littoralis, S.l.), mosquito (Aedes aegypti, A.a.) and eggs of Spodoptera littoralis, S.l.ov.
(§2) The test methods used for each species are described below. In each case the tests were conducted under normal insectary conditions (28° C.[…]; fluctuating light and humidity).
(§3) In each instance, the toxicity of the compound of the invention was compared to that of a standard pesticide (parathion), its relative toxicity then being expressed in terms of the relationship between the amount of compound of the invention and the amount of the standard pesticide required to produce the same percentage (50%) of mortality in the test insect. By assigning the standard pesticide an arbitrary rating of 100, the toxicities of the compounds of the invention were expressed in terms of the toxicity indices, which compares the toxicity of the compounds of the invention with that of the standard pesticide.
(a) Spodoptera littoralis--A solution or suspension of the test compound was made up over a range of concentrations in 10% acetone/water containing 0.025% Triton X100 (as surfactant). These solutions were sprayed using a logarithmic spraying machine onto petri dishes containing a nutritious diet on which the Spodoptera littoralis larvae had been reared. When the spray deposit had dried each dish was infested with 10 second instar larvae. Mortality assessments were made 7 days after spraying.

Aedes aegypti larvae = assay: Insecticidal activity, larvae in treated water (Test 1 (b)), toxicity vs parathion; type: in vivo, mosquito (Aedes aegypti); parameters: key: Toxicity Index: parathion = 100; 200 = twice as active, 50 = half; conditions: early fourth instar larvae; final mortality when all larvae emerged as adults or died; 50% mortality basis; standard parathion = 100
Method: as §1, §2
as §3, with “pesticide. That is to say, a test compound having a Toxicity Index of 50 would be half as active, while one having a Toxicity Index of 200 would be twice as active as the standard pesticide.” for “pesticide.”
(b) Aedes aegypti--Several solutions of the test compound of varying concentration were prepared in acetone. 100 microliter quantities were added to 100 milliliters of tap water, the acetone being allowed to evaporate off. Ten early fourth instar larvae were placed in the test solution; after 48 hours the (surviving) larvae were fed with animal feed pellets, and the final percentage mortality assessed when all the larvae had either pupated and emerged as adults or died.

[2] = system: eggs of Spodoptera littoralis; assay: Ovicidal activity, sprayed eggs (Test 1 (c)), toxicity vs parathion; type: in vivo, Egyptian cotton leafworm (Spodoptera littoralis); conditions: eggs less than 24 hours old; approximately five days; 50% mortality basis; standard parathion = 100
Method: as §1, §2
as §3, with “pesticide. That is to say, a test compound having a Toxicity Index of 50 would be half as active, while one having a Toxicity Index of 200 would be twice as active as the standard pesticide.” for “pesticide.”
(c) Spodoptera littoralis (ovicide)--Solutions as described in (a) above were prepared. Eggs less than 24 hours old were obtained as follows. Adult Spodoptera littoralis were held in large plastic cylinders containing blotting paper on which the moths laid their batches of eggs. Egg batches containing approximately 60-70 eggs were cut from the blotting paper with a 1 cm surround. These were placed, eggs uppermost, on filter paper in the deeper half of 5 cm disposable petri dishes and each batch of eggs was then sprayed with a different test solution or the control solution. The dishes were covered until the control eggs had hatched, approximately five days. The percentage ovicidal mortality was then calculated.

Solubility in xylene = type: physicochemical; conditions: organic solvent or mixture, o-xylene, 20° C., dark, liquid chromatography
Method: To illustrate the improved solubility in a common formulation solvent, xylene, of the compounds according to the invention, solubility tests were carried out with certain of these compounds and closely related compounds known from the literature. The test method is described below.
The compound (200 mg) was equilibrated with solvent (0.5 ml of o-xylene at 20° C. in the dark for 48 hours). After equilibration, the supernatant liquors were removed, centrifuged and then filtered. An aliquot portion of this (0.1 ml) was made up to volume (1 to 100 ml) with acetonitrile and then analyzed against standards by means of liquid chromatography.

SMILES	Toxicity Index S.l. [1]	Toxicity Index A.a. (Aedes aegypti larvae)	Toxicity Index S.l.ov. [2]	solubility at 48 h (Solubility in xylene) [µg/mL]
O=C(NC(=O)N(SC(Cl)(Cl)Cl)c1ccc(Oc2ccc(C(F)(F)F)cc2Cl)cc1)c1ccccc1Cl [Example 7, 2-Chloro-N-[[[4-[2-chloro-4-(trifluoromethyl)phenoxy]phenyl]-N-[(trichloromethyl)thio]amino]carbonyl]benzamide]	1800	55	0	
Cc1ccc(SN(C(=O)NC(=O)c2ccccc2Cl)c2ccc(Oc3ccc(C(F)(F)F)cc3Cl)cc2)cc1 [Example 34]	1200	130	0	
O=C(NC(=O)N(Sc1ccc(Cl)cc1)c1ccc(OC(F)(F)F)cc1)c1ccccc1Cl [Example 33]	57	44	1300	
O=C(NC(=O)c1ccccc1Cl)Nc1ccc(OC(F)(F)F)cc1 [1-(4-trifluoromethoxy-phenyl)-3-(2-chloro-benzoyl)-urea, reference compound]				2300 (≈ 6.41 mM)
O=C(NC(=O)N(Sc1ccccc1[N+](=O)[O-])c1ccc(OC(F)(F)F)cc1)c1ccccc1Cl [Example 1, 2-Chloro-N-[[[4-(trifluoromethoxy)phenyl]-N-[(2-nitrophenyl)thio]amino]carbonyl]benzamide]	750	220	210	3700 (≈ 7.23 mM)
Cc1ccc(SN(C(=O)NC(=O)c2c(F)cccc2F)c2ccc(Cl)cc2)cc1 [Example 11]	23	25	680	
O=C(NC(=O)c1c(F)cccc1F)Nc1ccc(Oc2ccc(C(F)(F)F)cc2Cl)cc1 [1-(4-(4-trifluoromethyl-2-chlorophenoxy)phenyl)-3-(2,6-difluorobenzoyl)urea, reference compound]				5700 (≈ 12.1 mM)
O=C(NC(=O)N(Sc1ccccc1[N+](=O)[O-])c1ccc(Cl)cc1)c1c(F)cccc1F [Example 5, N-[[[4-Chlorophenyl]-N-[(2-nitrophenyl)thio]amino]carbonyl]-2,6-difluorobenzamide]	90	220	0-4	
Cc1ccc(SN(C(=O)NC(=O)c2ccccc2Cl)c2ccc(OC(F)(F)F)cc2)cc1 [Example 23]	140	145	1500	
O=C(NC(=O)N(Sc1ccccc1)c1ccc(Oc2ccc(C(F)(F)F)cc2Cl)cc1)c1ccccc1Cl [Example 29]	930	330	0	
O=C(NC(=O)N(Sc1ccccc1)c1ccc(Cl)cc1)c1c(F)cccc1F [Example 8]	16	22	480	
O=C(NC(=O)N(Sc1ccccc1[N+](=O)[O-])c1ccc(Oc2ccc(C(F)(F)F)cc2Cl)cc1)c1c(F)cccc1F [Example 3]	4500		0	18800 (≈ 30.1 mM)
